Measured values taken from the supplement of paper PMC10307832.

Assays:
Experiment in all cases: relative viability (nuclei count vs DMSO), 5 days (fraction); higher = more cells survive
Avagacestat + Foretinib = compound: NC(=O)[C@@H](CCC(F)(F)F)N(Cc1ccc(-c2ncon2)cc1F)S(=O)(=O)c1ccc(Cl)cc1 [Avagacestat] + COc1cc2c(Oc3ccc(NC(=O)C4(C(=O)Nc5ccc(F)cc5)CC4)cc3F)ccnc2cc1OCCCN1CCOCC1 [Foretinib] (partner 0.25 µM)
Outline: (§1)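 Nuclei were stained with Hoechst during a one-step fixation (final 0.05% Triton X-100, 1% formaldehyde, 1 ug/ml Hoechst) carried out 5 days after dosing, then counted on 4× images. The cells, lung cancer lines in 1536-well plates, had been dosed by pin tool the day after seeding with one drug alone or a fixed anchor-drug dose plus five library-drug doses (not always all listed) in √10 steps. Relative viability is the nuclei count in treated wells divided by that in vehicle wells, and each value is the median of duplicate plates.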

Avagacestat + Alpelisib = compound: NC(=O)[C@@H](CCC(F)(F)F)N(Cc1ccc(-c2ncon2)cc1F)S(=O)(=O)c1ccc(Cl)cc1 [Avagacestat] + Cc1nc(NC(=O)N2CCC[C@H]2C(N)=O)sc1-c1ccnc(C(C)(C)C(F)(F)F)c1 [Alpelisib] (partner 2 µM)
Outline: as §1

Avagacestat + Pemetrexed = compound: NC(=O)[C@@H](CCC(F)(F)F)N(Cc1ccc(-c2ncon2)cc1F)S(=O)(=O)c1ccc(Cl)cc1 [Avagacestat] + Nc1nc2[nH]cc(CCc3ccc(C(=O)N[C@@H](CCC(=O)O)C(=O)O)cc3)c2c(=O)[nH]1 [Pemetrexed] (partner 0.2 µM)
Outline: as §1

Avagacestat + Olaparib = compound: NC(=O)[C@@H](CCC(F)(F)F)N(Cc1ccc(-c2ncon2)cc1F)S(=O)(=O)c1ccc(Cl)cc1 [Avagacestat] + O=C(c1cc(Cc2n[nH]c(=O)c3ccccc23)ccc1F)N1CCN(C(=O)C2CC2)CC1 [Olaparib] (partner 8 µM)
Outline: as §1

Cell Line	relative viability (Avagacestat + Foretinib; first compound 0.08 µM)	relative viability (Avagacestat + Foretinib; first compound 0.253 µM)	relative viability (Avagacestat + Foretinib; first compound 0.8 µM)	relative viability (Avagacestat + Foretinib; first compound 2.53 µM)	relative viability (Avagacestat + Foretinib; first compound 8 µM)	relative viability (Avagacestat + Alpelisib; first compound 0.08 µM)	relative viability (Avagacestat + Alpelisib; first compound 0.253 µM)	relative viability (Avagacestat + Alpelisib; first compound 0.8 µM)	relative viability (Avagacestat + Alpelisib; first compound 2.53 µM)	relative viability (Avagacestat + Alpelisib; first compound 8 µM)	relative viability (Avagacestat + Pemetrexed; first compound 0.08 µM)	relative viability (Avagacestat + Pemetrexed; first compound 0.253 µM)	relative viability (Avagacestat + Pemetrexed; first compound 0.8 µM)	relative viability (Avagacestat + Pemetrexed; first compound 2.53 µM)	relative viability (Avagacestat + Pemetrexed; first compound 8 µM)	relative viability (Avagacestat + Olaparib; first compound 0.08 µM)	relative viability (Avagacestat + Olaparib; first compound 0.253 µM)	relative viability (Avagacestat + Olaparib; first compound 0.8 µM)	relative viability (Avagacestat + Olaparib; first compound 2.53 µM)	relative viability (Avagacestat + Olaparib; first compound 8 µM)
H3255	0.857	0.913	0.934	0.891	0.949	0.759	0.736	0.836	0.678	0.741	0.57	0.622	0.591	0.552	0.557	0.626	0.663	0.609	0.621	0.572
EPLC-272H	0.72	0.662	0.825	0.602	0.661	1.05	1	1.02	1.09	0.865	0.322	0.429	0.318	0.31	0.267	0.939	1.04	0.905	0.783	0.635
SK-LU-1	0.993	0.879	0.852	0.575	0.66	1.02	0.633	0.937	0.773	0.807	1.19	0.972	0.951	0.97	0.741	0.472	0.62	0.515		0.374
NCI-H1793	0.686	0.693	0.854	0.473	0.619	0.967	0.777	0.822	0.769	0.672	0.907	1.03	1.07	0.94	0.785	1.04	0.601	1.11	0.827	0.616
EKVX	0.859	0.742	1.08	0.798	0.795	0.974	0.971	0.878	0.832	0.811	0.5	0.462	0.529	0.439	0.373	1.04	0.926	0.918	0.73	0.769
ChaGo-K-1	0.935	1	0.856	0.825	0.786						0.275	0.271	0.265	0.266	0.267	0.431	0.435	0.394	0.437	0.394
NCI-H2347	1.22	1.07	0.931	0.842	0.977	1.15	1.08	1.12	0.957	1.02	0.426	0.454	0.447	0.465	0.406	0.611	0.589	0.601	0.548	0.554
EMC-BAC-2	1.06	1.09	1.06	0.904	0.968	0.897	0.81	0.748	0.653	0.717	0.52	0.595	0.634	0.557	0.544	0.542	0.626	0.623	0.548	0.616
LU99A	0.807	0.875	0.925	0.837	0.786	0.659	0.498	0.529	0.51	0.483	0.25	0.232	0.182	0.226	0.155	0.254	0.259	0.269	0.265	0.243
LXF-289	1.04	0.957	0.992	0.982	0.893	1.08	1.15	1.04	1.1	0.949	0.986	0.947	0.936	0.905	0.799	1.41	1.41	1.15	1.08	1.04
NCI-H1395	0.981	0.946	0.903	0.899	0.846	0.938	0.996	0.879	1.05	0.943	0.866	0.954	1.08	0.798	0.696	0.463	0.475	0.516	0.359	0.435
NCI-H596	1	0.831	0.85	0.809	0.84	0.584	0.482	0.479	0.466	0.491	0.594	0.56	0.578	0.528	0.503	0.741	0.62	0.804	0.613	0.573
201T	1.18	1.45	1.06	0.944	1.1	1.04	1.02	1.04	0.892	0.887	0.314	0.352	0.351	0.301	0.335	0.925	0.812	0.871	0.79	0.737
NCI-H1944	0.895	1.06	0.795	0.644	0.779	0.874	0.857	0.844	0.667	0.758	0.784	0.654	0.613	0.599	0.585	0.492	0.448	0.46	0.4	0.421
NCI-H3122	0.945	1	0.992	0.964	0.991	0.903	0.966	0.802	0.813	0.739	0.216	0.238	0.208	0.195	0.205	0.717	0.735	0.885	0.659	0.645
NCI-H1734	0.932	0.934	0.839	0.771	0.835	0.896	0.641	0.737	0.674	0.67	0.437	0.398	0.401	0.426	0.434	0.731	0.747	0.614	0.574	0.633
NCI-H1792						0.871	0.618	0.774	0.541	0.562	1.54	1.08	1.28	0.818	0.451	0.673	0.605	0.563	0.408	0.726
NCI-H2126	1.53	1.21	1.34	1.06	1.02	0.737	0.743	0.747	0.734	0.68	0.67	0.687	0.698	0.605	0.683	0.921	0.941	0.931	1.03	0.873
NCI-H727	0.947	0.932	0.803	0.783	0.881	0.749	0.682	0.695	0.467	0.558						0.735	0.875	0.698	0.745	0.788
EBC-1	0.114	0.113	0.123	0.11	0.107	0.691	0.78	0.743	0.738	0.555						0.76	0.868	0.704	0.799	0.537
NCI-H1563	1.1	0.999	0.879	0.803	0.842	0.925	0.989	0.937	0.934	0.8	0.811	0.664	0.82	0.711	0.683					
NCI-H1648											0.572	0.505	0.451	0.467	0.505	0.678	0.806	0.516	0.437	0.534
SW 900	1.38	1.32	0.967	0.612	1.2						0.485	0.507	0.474	0.486	0.482	1.04	0.96	0.982	0.634	0.896
NCI-H1299	1.07	1.12	1.15	1.09	1.12	1.1	1.18	1.08	1.02	0.886						0.97	1.07	0.975	0.979	0.929
NCI-H1650	1.47	1.11	1.06	1.04	1.09						0.357	0.387	0.365	0.381	0.382	0.961	0.893	0.86	0.917	0.936
IA-LM	1.76	1.68	1.71	1.37	1.4	1.09	1.62	1.74	1.43	1.16						1.33	1.37	1.15	1.06	1.05
NCI-H1703	0.315	0.318	0.384	0.338	0.308	0.444	0.387	0.405	0.378	0.385						0.489	0.297	0.421	0.264	0.335
HCC-44						0.939	0.746	0.8	0.667	0.645	0.733	0.68	0.706	0.66	0.639	1.04	1.05	1.07	1.01	1
ABC-1	1.16	1.06	1.15	1	1.06	1.11	1.02	1.26	1.11	1.29						0.904	0.512	0.836	0.776	0.757
NCI-H522											0.933	1.27	0.774	1.04	1.07	0.566	0.715	0.656	0.691	0.621
